For data set [1], the system named is Streptococcus pneumoniae. Kind of data set: Antimicrobial activity against Streptococcus pneumoniae assessed as resistant isolates broth microdilution method. Format: functional. Background: Broth dilution looks for growth in wells or tubes with falling amounts of substance.
Data set [2] deals with Streptococcus pneumoniae. The data set can be described thus: Antimicrobial activity against compound-intermediate Streptococcus pneumoniae by broth microdilution method.
In data set [3] the test system is Streptococcus pneumoniae. The data set can be described thus: Antimicrobial activity against compound-susceptible Streptococcus pneumoniae by broth microdilution method.
Data set [4] relates to Streptococcus pneumoniae. The data set can be described thus: Antimicrobial activity against compound-resistant Streptococcus pneumoniae by broth microdilution method.
Data set [5] deals with Streptococcus pneumoniae. Kind of data set: Antimicrobial activity against SXT-susceptible Streptococcus pneumoniae by broth microdilution method. Format: functional.
The nature of data set [6]: Drug concentration in alveolar macrophages of patient with Streptococcus pneumoniae infections at 1.6 mg/kg, iv administered as single 60 mins infusion measured after 5.5 to 7 hrs. The conditions noted are these: human, in vivo. More on the design: dose 1.6 mg/kg, route intravenous. Format: ADME, organism-based, Macrophage.
Data set [7] in a line: Drug concentration in alveolar macrophages of patient with Streptococcus pneumoniae infections at 1.6 mg/kg, iv administered as single 60 mins infusion measured after 3 to 4 hrs. The conditions noted are these: human, in vivo. Format: ADME, organism-based, Macrophage. The arrangement: dose 1.6 mg/kg, route intravenous.
Data set [8] has as its system Streptococcus pneumoniae. The data set can be described thus: Antimicrobial activity against Ciprofloxacin-susceptible Streptococcus pneumoniae by broth microdilution method. Format: functional.
Data set [9] is described as follows: Drug concentration in epithelial lining fluid of patient with Streptococcus pneumoniae infections at 1.6 mg/kg, iv administered as single 60 mins infusion measured after 1 to 2 hrs. The data set is classed as ADME, organism-based. More on the design: dose 1.6 mg/kg, route intravenous. The conditions noted are these: human, in vivo.
Data set [10] is described as follows: Drug concentration in epithelial lining fluid of patient with Streptococcus pneumoniae infections at 1.6 mg/kg, iv administered as single 60 mins infusion measured after 3 to 4 hrs. More on the design: dose 1.6 mg/kg, route intravenous. The data set is classed as ADME, organism-based. The conditions noted are these: human, in vivo.
Data set [11] concerns Streptococcus pneumoniae. The data set can be described thus: Antimicrobial activity against penicillin-susceptible Streptococcus pneumoniae by broth microdilution method. The data set is classed as functional.
Data set [12] has as its system Streptococcus pneumoniae. Kind of data set: Antimicrobial activity against Doxycycline-susceptible Streptococcus pneumoniae by broth microdilution method. The data set is classed as functional.
A short description of data set [13]: Drug concentration in alveolar macrophages of patient with Streptococcus pneumoniae infections at 1.6 mg/kg, iv administered as single 60 mins infusion measured after 1 to 2 hrs. Format: ADME, organism-based, Macrophage. More on the design: dose 1.6 mg/kg, route intravenous. The conditions noted are these: human, in vivo.
Data set [14] in a line: Drug concentration in epithelial lining fluid of patient with Streptococcus pneumoniae infections at 1.6 mg/kg, iv administered as single 60 mins infusion measured after 5.5 to 7 hrs. The conditions noted are these: human, in vivo. Format: ADME, organism-based. The arrangement: dose 1.6 mg/kg, route intravenous.
Where [15] appears, read: Streptococcus pneumoniae, read-out: MIC50.

Usually MIC stands for the lowest concentration found to suppress growth. Higher therefore signals a need for much substance. The term MIC50 denotes an inhibitory concentration at the 50% level, which refers to growth in some studies and to a panel of isolates in others.

Structures are written as SMILES. In brackets after ≈: the same amount, converted by molar mass.

As to `O=C(O)c1cn(C2CC2)c2cc(N3CCNCC3)c(F)cc2c1=O` [CIPROFLOXACIN], the Activity with Streptococcus pneumoniae [1] stood at 1.7%. Also, the MIC is 2 µg/mL (≈ 6.04 µM) in the data set with Streptococcus pneumoniae [2], not above 1 µg/mL against Streptococcus pneumoniae [3] and not below 4 µg/mL in the data set on Streptococcus pneumoniae [4].
Regarding `CC[C@H]1OC(=O)[C@H](C)[C@@H](O[C@H]2C[C@@](C)(OC)[C@@H](O)[C@H](C)O2)[C@H](C)[C@@H](O[C@@H]2O[C@H](C)C[C@H](N(C)C)[C@H]2O)[C@](C)(OC)C[C@@H](C)C(=O)[C@H](C)[C@@H](O)[C@]1(C)O` [CLARITHROMYCIN], in the data set with Streptococcus pneumoniae [1], the Activity is given as 11.8%.
For the compound `C[C@H]1c2cccc(O)c2C(=O)C2=C(O)[C@]3(O)C(=O)C(C(N)=O)=C(O)[C@@H](N(C)C)[C@@H]3[C@@H](O)[C@@H]21.O` [DOXYCYCLINE], the Activity in the data set with Streptococcus pneumoniae [1] is 0.9%.
Take `COc1cc(Cc2cnc(N)nc2N)c2c(c1OC)OC(C1CC1)C=C2` (stereo unspecified) [ICLAPRIM]: the MIC50 against Streptococcus pneumoniae [5] was 0.06 µg/mL (≈ 0.169 µM); in the data set on Streptococcus pneumoniae [5] (setting [15]) it was not above 0.03 µg/mL; with Streptococcus pneumoniae [8] it was 0.06 µg/mL (≈ 0.169 µM); in the data set on Streptococcus pneumoniae [8] (setting [15]), not above 0.03 µg/mL; against Streptococcus pneumoniae [11] it was 0.06 µg/mL (≈ 0.169 µM); with Streptococcus pneumoniae [11] (setting [15]), not above 0.03 µg/mL. Further, the MIC50 was 0.06 µg/mL (≈ 0.169 µM) against Streptococcus pneumoniae [12] and not above 0.03 µg/mL with Streptococcus pneumoniae [12] (setting [15]). Besides, the Drug uptake came to 5.28 µg/mL in [6]; 7.16 µg/mL in data set [7]; 12.61 µg/mL in [9]; 6.38 µg/mL in [10]; 24.5 µg/mL in data set [13]; 2.66 µg/mL in data set [14].
For `CC1(C)S[C@@H]2[C@H](NC(=O)Cc3ccccc3)C(=O)N2[C@H]1C(=O)O` [PENICILLIN G], the Activity in the data set on Streptococcus pneumoniae [1] turned out to be 6.8%.
